The test system of one assay is S.aureus. Put plainly: in vitro MIC by serial dilution, S.aureus. The assay is classed as cell-based, Staphylococcus aureus. Conditions: for MIC: Staphylococcus aureus, read-out: MIC (minimal inhibitory concentration); for antistaphylococcal activity: in words, compared with cephazolin and cephalothin. As to the method:
(§1) A series of comparative tests was carried out in vitro with the method of serial dilutions in Penassay Seed Broth Difco inoculated with 10^4 bacteria/ml (overnight cultures).
(§2) Table 1 below reports the results of the above assays as MIC (minimal inhibitory concentration, mcg/ml).

The next assay deals with S.flexneri. Put plainly: in vitro MIC by serial dilution, S.flexneri. The assay is classed as cell-based. As to conditions: Shigella flexneri, read-out: MIC (minimal inhibitory concentration). As to the method:
as §1, §2

In a further assay the test system is K.pneumoniae. Put plainly: in vitro MIC by serial dilution, K.pneumoniae. It is filed as cell-based. Conditions: Klebsiella pneumoniae; K.pneumoniae; serial dilutions in Penassay Seed Broth Difco, 10^4 bacteria/ml; read-out: MIC (minimal inhibitory concentration). As to the method: as §1, §2
The next assay has as its system S.pyogenes. The assay can be described thus: in vitro MIC by serial dilution, S.pyogenes. Conditions: Streptococcus pyogenes; S.pyogenes; serial dilutions in Penassay Seed Broth Difco, 10^4 bacteria/ml; read-out: MIC (minimal inhibitory concentration). The assay is classed as cell-based. As to the method: as §1, §2
In another assay the test system is E.coli B. Put plainly: in vitro MIC by serial dilution, E.coli B. It is filed as cell-based. As to conditions: Escherichia coli, read-out: MIC (minimal inhibitory concentration). As to the method:
as §1, §2

A further assay deals with S.abortivoequina. Put plainly: in vitro MIC by serial dilution, S.abortivoequina. It is filed as cell-based. Conditions: Salmonella, read-out: MIC (minimal inhibitory concentration). As to the method: as §1, §2
Another assay relates to P.mirabilis. The assay can be described thus: in vitro MIC by serial dilution, P.mirabilis. It is filed as cell-based. Conditions: Proteus mirabilis; P.mirabilis; serial dilutions in Penassay Seed Broth Difco, 10^4 bacteria/ml; read-out: MIC (minimal inhibitory concentration). As to the method: as §1, §2
The next assay concerns Staphylococcus aureus. The assay can be described thus: in vivo therapeutic activity on mice experimentally infected with Staphylococcus aureus. The arrangement: species or system male Swiss Cobs albino mice. Conditions: for ED50: Staphylococcus aureus, sc, 168 h, Table 2, 2 LD50/mouse i.p., subcutaneous treatment 4 h after infection, 7 days, read-out: ED50 (dose effective in curing 50% of the infected mice); for effectiveness on experimental staphylococcal infections: in words, compared with cephazolin and cephalothin. As to the method: In vivo tests for therapeutic activity were carried out on mice experimentally infected with Staphylococcus aureus and Salmonella abortivoequina (Infective dose: 2 LD50 /mouse i.p.); groups of 6 male Swiss Cobs albino mice were used. The infected animals were treated by the subcutaneous route 4 h after infection. The mortality rate was recorded every day for 7 days. The activity was assessed as ED50 (Dose effective in curing 50% of the infected mice as mg/Kg--see Reed and Muench, Am. J. Hyg. 27, 493, 1938.)

For a further assay, the system named is S.typhimurium. The assay can be described thus: in vitro MIC by serial dilution, S.typhimurium. The assay is classed as cell-based. As to conditions: Salmonella enterica, read-out: MIC (minimal inhibitory concentration). As to the method:
as §1, §2

The mark [1] stands for this setting: S.aureus, serial dilutions in Penassay Seed Broth Difco, 10^4 bacteria/ml.
[2] abbreviates: S.flexneri, serial dilutions in Penassay Seed Broth Difco, 10^4 bacteria/ml.
Where [3] appears, read: E.coli B, serial dilutions in Penassay Seed Broth Difco, 10^4 bacteria/ml.
[4] abbreviates: S.abortivoequina, serial dilutions in Penassay Seed Broth Difco, 10^4 bacteria/ml.
The mark [5] stands for this setting: S.typhimurium, serial dilutions in Penassay Seed Broth Difco, 10^4 bacteria/ml.

≈ marks a conversion by molar mass, not a printed value. Read-outs that look alike come from different tables or passages of the source.

For the compound `O=C(Cc1ccccc1)NC1C(=O)N2C(C(=O)O)=C(CSc3c[n+]([O-])ccn3)CSC12` (centres unmarked) [356/307, 7-phenylacetamido-3-(pyrazin-2-ylthiomethyl-4-oxide)-3-cephem-4-carboxylicacid], the MIC in the assay on S.aureus (setting [1]) was found to be 0.012 µg/mL (≈ 0.0262 µM); in the assay on S.flexneri (setting [2]), 12.5 µg/mL (≈ 27.3 µM); in the assay on K.pneumoniae it was 1.5 µg/mL (≈ 3.27 µM); with S.pyogenes, 1.5 µg/mL (≈ 3.27 µM); in the assay on E.coli B (setting [3]), 6 µg/mL (≈ 13.1 µM); in the assay on S.abortivoequina (setting [4]) it was 25 µg/mL (≈ 54.5 µM). The antistaphylococcal activity result in the assay on S.aureus is listed as “excellent antistaphylococcal activity, clearly superior to that of known cephalosporins”.

Take `O=C(Cc1ccccc1)NC1C(=O)N2C(C(=O)O)=C(CSc3cnccn3)CS[C@H]12` (some centres unmarked) [Compound 308, 7-phenylacetamido-3-pyrazinylthiomethyl-3-cephem-4-carboxylic acid]: the MIC was 0.012 µg/mL (≈ 0.0271 µM) in the assay on S.aureus (setting [1]); 50 µg/mL (≈ 113 µM) in the assay with S.flexneri (setting [2]); 0.75 µg/mL (≈ 1.69 µM) with K.pneumoniae; 50 µg/mL (≈ 113 µM) with P.mirabilis; 1.5 µg/mL (≈ 3.39 µM) with S.pyogenes; 1 to 2 µg/mL (≈ 2.26 to 4.52 µM) in the assay on E.coli B (setting [3]). In the assay with S.abortivoequina (setting [4]), the MIC is 100 µg/mL (≈ 226 µM). The antistaphylococcal activity entry in the assay with S.aureus was “excellent antistaphylococcal activity, clearly superior to that of known cephalosporins”. Besides, in the assay with Staphylococcus aureus, the ED50 (usually the dose that gives a 50% effect, or the effect in half of the subjects) is 17.5 mg/kg. In addition, in the assay on Staphylococcus aureus, the “effectiveness on experimental staphylococcal infections” value (“effectiveness” for short) was “more effective than cephazolin and cephalothin”.

Take `O=C(Cc1ccccc1)NC1C(=O)N2C(C(=O)O)=C(CSc3cncc(Cl)n3)CSC12` (centres unmarked) [Compound 310, 7-phenylacetamido-3-(6-chlorpyrazin-2-ylthiomethyl)-3-cephem-4-carboxylic acid]: the MIC in the assay with S.aureus (setting [1]) was 0.06 µg/mL (≈ 0.126 µM); in the assay with S.flexneri (setting [2]), more than 50 µg/mL; in the assay on K.pneumoniae it was 0.1 µg/mL (≈ 0.21 µM); with S.pyogenes, 6.2 µg/mL (≈ 13 µM); in the assay on E.coli B (setting [3]) it was 0.6 µg/mL (≈ 1.26 µM); in the assay with S.abortivoequina (setting [4]), 50 µg/mL (≈ 105 µM). The antistaphylococcal activity entry with S.aureus was “excellent antistaphylococcal activity, clearly superior to that of known cephalosporins”. Moreover, the ED50 in the assay with Staphylococcus aureus amounted to 35 mg/kg.

Turning to `NC(=O)c1cncc(SCC2=C(C(=O)O)N3C(=O)C(NC(=O)Cc4ccccc4)C3SC2)n1` (centres unmarked) [Compound 311, 7-phenylacetamido-3-(6-carboxamidopyrazin-2-ylthiomethyl)-3-cephem-4-carboxylic acid], the MIC is 0.06 µg/mL (≈ 0.124 µM) with S.aureus (setting [1]); 12.5 µg/mL (≈ 25.7 µM) with S.flexneri (setting [2]); 1.5 to 2.5 µg/mL (≈ 3.09 to 5.15 µM) in the assay on K.pneumoniae; more than 50 µg/mL in the assay with P.mirabilis; 1.5 µg/mL (≈ 3.09 µM) with S.pyogenes; 5 µg/mL (≈ 10.3 µM) in the assay on E.coli B (setting [3]). Also, in the assay on S.abortivoequina (setting [4]), the MIC is more than 50 µg/mL. For the same compound, the ED50 in the assay on Staphylococcus aureus was 17.5 mg/kg. For the same compound, the “effectiveness” value in the assay with Staphylococcus aureus was “more effective than cephazolin and cephalothin”.

For the compound `CC(=O)OCC1=C(C(=O)O)N2C(=O)C(NC(=O)CSc3cnccn3)C2SC1` (centres unmarked) [Compound 312, 7-pyrazinylthioacetamidocephalosporanic acid], the MIC in the assay with S.aureus came out at 0.12 µg/mL (≈ 0.283 µM); in the assay with S.flexneri it was 12.5 µg/mL (≈ 29.4 µM); with K.pneumoniae it was 1.5 µg/mL (≈ 3.53 µM); in the assay on S.pyogenes, 3.1 µg/mL (≈ 7.3 µM); in the assay on E.coli B it was 5 µg/mL (≈ 11.8 µM); in the assay on S.abortivoequina (setting [4]), 25 µg/mL (≈ 58.9 µM). Moreover, the ED50 in the assay on Staphylococcus aureus came out at 40 mg/kg.

Regarding `NC(=O)c1cncc(SCC2=C(C(=O)O)N3C(=O)C(NC(=O)Cc4cccs4)C3SC2)n1` (centres unmarked) [Compound 313, 7-(2-thienyl)-acetamido-3-(6-carboxamidopyrazin-2-ylthiomethyl)-3-cephem-4-carboxylic acid], the MIC came to 0.012 µg/mL (≈ 0.0244 µM) with S.aureus (setting [1]); 6.25 µg/mL (≈ 12.7 µM) in the assay with S.flexneri (setting [2]); 1.25 µg/mL (≈ 2.54 µM) in the assay on K.pneumoniae; 50 µg/mL (≈ 102 µM) with P.mirabilis; 1.25 µg/mL (≈ 2.54 µM) in the assay with S.pyogenes; 2.5 µg/mL (≈ 5.09 µM) in the assay with E.coli B (setting [3]). Also, the MIC with S.typhimurium (setting [5]) stood at 12.5 µg/mL (≈ 25.4 µM); in the assay on S.abortivoequina, 6.25 µg/mL (≈ 12.7 µM). Also, in the assay on S.aureus, the antistaphylococcal activity entry was “excellent antistaphylococcal activity, clearly superior to that of known cephalosporins”. Also, the 50% effective dose (ED50) in the assay on Staphylococcus aureus turned out to be 20 mg/kg. In addition, the “effectiveness” value in the assay on Staphylococcus aureus is “more effective than cephazolin and cephalothin”.

On to `O=C(Cc1cccs1)NC1C(=O)N2C(C(=O)O)=C(CSc3cnccn3)CSC12` (centres unmarked) [Compound 314, 7-(2-thienyl)-acetamido-3-pyrazinylthiomethyl-3-cephem-4-carboxylic acid], for which the MIC was determined as 0.003 µg/mL (≈ 0.00669 µM) with S.aureus (setting [1]); 6.25 µg/mL (≈ 13.9 µM) in the assay with S.flexneri (setting [2]); 0.6 µg/mL (≈ 1.34 µM) with K.pneumoniae; 25 µg/mL (≈ 55.7 µM) in the assay on P.mirabilis; 1.25 µg/mL (≈ 2.79 µM) in the assay on S.pyogenes; 0.6 µg/mL (≈ 1.34 µM) in the assay with E.coli B (setting [3]). The MIC in the assay with S.typhimurium (TYPHIMURIUM) and with S.abortivoequina was 6.25 µg/mL (≈ 13.9 µM) in each case. Moreover, in the assay on Staphylococcus aureus, the ED50 worked out at 20 mg/kg.

Take `O=C(CSc1cnccn1)NC1C(=O)N2C(C(=O)O)=C(CSc3cncc(Cl)n3)CSC12` (centres unmarked) [Compound 315, 7-pyrazinylthioacetamido-3-(6-chloropyrazin-2-ylthiomethyl)-3-cephem-4-carboxylic acid]: the MIC with S.aureus (setting [1]) is 0.006 µg/mL (≈ 0.0117 µM); with S.flexneri (setting [2]) it was 50 µg/mL (≈ 97.8 µM); in the assay with K.pneumoniae, 1.25 µg/mL (≈ 2.45 µM); with P.mirabilis, more than 50 µg/mL; in the assay on S.pyogenes, 1.25 µg/mL (≈ 2.45 µM); with E.coli B (setting [3]), 2.5 µg/mL (≈ 4.89 µM). In addition, the MIC with S.typhimurium (setting [5]) and in the assay on S.abortivoequina (setting [4]) was more than 50 µg/mL throughout. Also, the antistaphylococcal activity result with S.aureus is on record as “excellent antistaphylococcal activity, clearly superior to that of known cephalosporins”. Moreover, the ED50 with Staphylococcus aureus worked out at 40 mg/kg.

As to `O=C(CSc1cnccn1)NC1C(=O)N2C(C(=O)O)=C(CSc3c[n+]([O-])ccn3)CSC12` (centres unmarked) [Compound 316, 7-pyrazinylthioacetamido-3-(pyrazin-2-ylthiomethyl-4-oxide)-3-cephem-4-carboxylic acid], the MIC in the assay on S.aureus (setting [1]) is 0.025 µg/mL (≈ 0.0508 µM); in the assay with S.flexneri (setting [2]) it was 12.5 µg/mL (≈ 25.4 µM); in the assay on K.pneumoniae, 2.5 µg/mL (≈ 5.08 µM); with P.mirabilis, more than 50 µg/mL; with S.pyogenes it was 2.5 µg/mL (≈ 5.08 µM); in the assay on E.coli B (setting [3]), 5 µg/mL (≈ 10.2 µM). The MIC with S.typhimurium (setting [5]) is 50 µg/mL (≈ 102 µM); with S.abortivoequina it was 12.5 µg/mL (≈ 25.4 µM). In addition, the antistaphylococcal activity entry in the assay on S.aureus is “excellent antistaphylococcal activity, clearly superior to that of known cephalosporins”. The ED50 in the assay on Staphylococcus aureus worked out at 40 mg/kg.

On to `COc1nccnc1SCC1=C(C(=O)O)N2C(=O)C(NC(=O)Cc3cccs3)C2SC1` (centres unmarked) [Compound 317, 7-(2-thienyl)-acetamido-3-(3-methoxy-pyrazin-2-ylthiomethyl)-3-cephem-4-carboxylic acid], for which the MIC is 0.005 µg/mL (≈ 0.0104 µM) with S.aureus (setting [1]); 50 µg/mL (≈ 104 µM) with S.flexneri (setting [2]); 1.5 µg/mL (≈ 3.13 µM) in the assay with K.pneumoniae; 50 µg/mL (≈ 104 µM) in the assay with P.mirabilis; 1.5 µg/mL (≈ 3.13 µM) in the assay on E.coli B (setting [3]); more than 50 µg/mL in the assay with S.typhimurium (setting [5]). Further, in the assay with S.abortivoequina (setting [4]), the MIC is more than 50 µg/mL.

As to `O=C(Cn1cnnn1)NC1C(=O)N2C(C(=O)O)=C(CSc3cnccn3)CSC12` (centres unmarked) [Compound 318, 7-[1-(1H)-tetrazolylacetamido]-3-pyrazinylthiomethyl-3-cephem-4-carboxylic acid], the MIC with S.aureus (setting [1]) is 0.097 µg/mL (≈ 0.223 µM); in the assay with S.flexneri (setting [2]) it was 3.1 µg/mL (≈ 7.14 µM); in the assay with K.pneumoniae it was 3.1 µg/mL (≈ 7.14 µM); with P.mirabilis, 12.5 µg/mL (≈ 28.8 µM); with E.coli B (setting [3]) it was 6.25 µg/mL (≈ 14.4 µM); with S.typhimurium (setting [5]) it was 12.5 µg/mL (≈ 28.8 µM). In addition, the MIC in the assay on S.abortivoequina (setting [4]) was 3.1 µg/mL (≈ 7.14 µM).
